# Results: paper PMC7232244, “Aspartic Acid Isomerization Characterized by High Definition Mass Spectrometry Significantly Alters the Bioactivity of a Novel Toxin from Poecilotheria” (Toxins, 2020)
# Numbered stars: 1 amine (or outer) side, 2 acyl side, 3 side chain; on linkers, the order of the positions; unused ones are H or OH. Bridge positions count the residues as written; N and C are the ends. Square brackets hold non-standard residues; d marks the D form. Peptide text beside a SMILES is read from it. βAsp = O=C(O)[C@H](CC(=O)[*:2])N[*:1]
# Type: physicochemical
# Conditions: chromatographic, reversed-phase UPLC BEH C18, 0.10% formic acid/acetonitrile gradient; P. vittata venom (Figure 3A); taken as increased solubility / loss of hydrophobicity
# Source text: We used an iterative series of analytical processes to identify potential peptide modulators for neuronal activity and subsequently identified their primary structure, including PTMs, that may alter their efficacy and potency. In the initial phase of toxin selection, venom from Poecilotheria were collected and screened by HDMS^E. The venom was a complex mixture of molecules with a high percentage of proteinaceous materials ranging from 3–6 kDa with an average venom yield from 50 collections (five from each of the ten species) of ~148 ± 12 μg of total protein per μL of venom as determined by conventional Bradford assay (data not shown). An analytical screening of each venom was performed for preliminary compound identification and any PTMs, e.g., isobaric conformations. 100 μg of lyophilized venom from each species of Poecilotheria were suspended in 1 mL of the initial mobile phase and a 1 μL aliquot injection was made into an UPLC coupled to a HDMS. […]
# In order to calculate the molecular mass, we deconvoluted the charge envelope of each peptide using high-resolution mass spectrometry MS scans (“MS” in HDMS^E). […] The molecular monoisotopic masses of PcaTX-1a and PcaTX-1b were determined to be 4024.710 Da and 4024.709 Da, respectively (Figure 3B,C). […]
smiles,measurement,value
"CC(C)C[C@@H]1NC(=O)[C@H](Cc2c[nH]cn2)NC(=O)[C@H](CCCCN)NC(=O)[C@@H]2CSSC[C@H](NC(=O)CNC(=O)[C@H](C)N)C(=O)N[C@@H](CCCCN)C(=O)N[C@@H](Cc3ccc(O)cc3)C(=O)N[C@@H](CC(C)C)C(=O)N[C@@H](Cc3ccccc3)C(=O)NCC(=O)N[C@@H](CO)C(=O)N[C@H]3CSSC[C@H](NC(=O)CNC1=O)C(=O)N[C@@H](CCCNC(=N)N)C(=O)N[C@@H](CCCNC(=N)N)C(=O)N[C@@H](CCCCN)C(=O)N[C@@H](C)C(=O)N1CCC[C@H]1C(=O)N[C@@H](CCC(N)=O)C(=O)N[C@@H](Cc1ccc(O)cc1)C(=O)N[C@H](C(=O)NCC(=O)N[C@@H](Cc1c[nH]c4ccccc14)C(=O)N[C@@H](CC(=O)NCC(=O)N[C@H](C(=O)N[C@@H](Cc1ccccc1)C(N)=O)[C@@H](C)O)C(=O)O)CSSC[C@H](NC(=O)[C@H](CC(=O)O)NC(=O)[C@H](CO)NC(=O)[C@H](CC(=O)O)NC(=O)[C@H](CCC(=O)O)NC(=O)[C@H](CCCCN)NC3=O)C(=O)N2 [PcaTX-1a] (H-AGCKYLFGSCKEDSDCCKHLGCRRKAPQYCGW[βAsp]GTF-NH2; disulfide 3-17, 10-22, 16-30)",decrease of partition coefficient (k') as compared to PcaTX-1b,9.3%
